Data on 14 compounds can be found in patent US10358427B2, “Modulators of indoleamine 2,3-dioxygenase” (GLAXOSMITHKLINE INTELLECTUAL PROPERTY DEVELOPMENT LIMITED, priority 2015, dated 2019).

For assay [1], the target named is T1, indoleamine 2, 3-dioxygenase (IDO1) (Homo sapiens, UniProt P14902). In words: HeLa IDOi assay (kynurenine detection via mass spectrometry). It is filed as cell-based. More on the design: human epithelial HeLa cells (CCL-2; host or cells: HeLa cells stimulated with human IFN-γ. The conditions noted are these: human epithelial HeLa cells stimulated with IFN-γ; kynurenine by mass spectrometry; 2 days incubation. How it is done: (§1) Compounds of the present invention were tested via high-throughput cellular assays utilizing detection of kynurenine via mass spectrometry and cytotoxicity as end-points. For the mass spectrometry and cytotoxicity assays, human epithelial HeLa cells (CCL-2; ATCC®, Manassas, Va.) were stimulated with human interferon-γ (IFN-γ) (Sigma-Aldrich Corporation, St. Louis, Mo.) to induce the expression of indoleamine 2, 3-dioxygenase (IDO1). Compounds with IDO1 inhibitory properties decreased the amount of kynurenine produced by the cells via the tryptophan catabolic pathway. Cellular toxicity due to the effect of compound treatment was measured using CellTiter-Glo® reagent (CTG) (Promega Corporation, Madison, Wis.), which is based on luminescent detection of ATP, an indicator of metabolically active cells.
T1 sequence (P14902 whole entry): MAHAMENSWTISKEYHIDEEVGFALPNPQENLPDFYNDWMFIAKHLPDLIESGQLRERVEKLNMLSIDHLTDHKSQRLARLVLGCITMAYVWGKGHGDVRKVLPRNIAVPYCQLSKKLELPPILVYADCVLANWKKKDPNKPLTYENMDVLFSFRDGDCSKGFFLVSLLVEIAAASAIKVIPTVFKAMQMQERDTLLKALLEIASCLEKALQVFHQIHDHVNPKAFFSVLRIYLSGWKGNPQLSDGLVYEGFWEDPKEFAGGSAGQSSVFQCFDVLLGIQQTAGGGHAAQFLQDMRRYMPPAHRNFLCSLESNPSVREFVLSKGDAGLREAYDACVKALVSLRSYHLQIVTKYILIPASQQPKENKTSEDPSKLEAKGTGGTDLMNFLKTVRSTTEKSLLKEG
(§2) In preparation for the assays, test compounds were serially diluted 3-fold in DMSO from a typical top concentration of 5 mM and plated at 0.5 μL in 384-well, polystyrene, clear bottom, tissue culture treated plates with lids (Greiner Bio-One, Kremsmünster, Austria) to generate 11-point dose response curves. Low control wells (0% kynurenine or 100% cytotoxicity) contained either 0.5 μL of DMSO in the presence of unstimulated (−IFN-γ) HeLa cells for the mass spectrometry assay or 0.5 μL of DMSO in the absence of cells for the cytotoxicity assay, and high control wells (100% kynurenine or 0% cytotoxicity) contained 0.5 μL of DMSO in the presence of stimulated (+IFN-γ) HeLa cells for both the mass spectrometry and cytotoxicity assays.
Frozen stocks of HeLa cells were washed and recovered in DMEM high glucose medium with HEPES (Thermo Fisher Scientific, Inc., Waltham, Mass.) supplemented with 10% v/v certified fetal bovine serum (FBS) (Thermo Fisher Scientific, Inc., Waltham, Mass.), and 1× penicillin-streptomycin antibiotic solution (Thermo Fisher Scientific, Inc., Waltham, Mass.). The cells were diluted to 100,000 cells/mL in the supplemented DMEM medium. 50 μL of either the cell suspension, for the mass spectrometry assay, or medium alone, for the cytotoxicity assay, were added to the low control wells, on the previously prepared 384-well compound plates, resulting in 5,000 cells/well or 0 cells/well respectively. IFN-γ was added to the remaining cell suspension at a final concentration of 10 nM, and 50 μL of the stimulated cells were added to all remaining wells on the 384-well compound plates. The plates, with lids, were then placed in a 37° C., 5% CO2 humidified incubator for 2 days.
(§3) Following incubation, the 384-well plates were removed from the incubator and allowed to equilibrate to room temperature for 30 minutes. For the cytotoxicity assay, CellTiter-Glo® was prepared according to the manufacturer's instructions, and 10 μL were added to each plate well. After a twenty minute incubation at room temperature, luminescence was read on an EnVision® Multilabel Reader (PerkinElmer Inc., Waltham, Mass.). For the mass spectrometry assay, 10 μL of supernatant from each well of the compound-treated plates were added to 40 μL of acetonitrile, containing 10 μM of an internal standard for normalization, in 384-well, polypropylene, V-bottom plates (Greiner Bio-One, Kremsmünster, Austria) to extract the organic analytes. Following centrifugation at 2000 rpm for 10 minutes, 10 μL from each well of the acetonitrile extraction plates were added to 90 μL of sterile, distilled H2O in 384-well, polypropylene, V-bottom plates for analysis of kynurenine and the internal standard on the RapidFire 300 (Agilent Technologies, Santa Clara, Calif.) and 4000 QTRAP MS (SCIEX, Framingham, Mass.). MS data were integrated using Agilent Technologies' RapidFire Integrator software, and data were normalized for analysis as a ratio of kynurenine to the internal standard. […]

In assay [2] the target is T1, indoleamine 2, 3-dioxygenase (IDO1). In words: PBMC IDOi assay (kynurenine detection via mass spectrometry). Type of assay: cell-based. The conditions noted are these: human PBMC stimulated with IFN-γ and LPS; kynurenine by mass spectrometry; 2 days incubation. Here is the method:
as §1, with “peripheral blood mononuclear” for “epithelial HeLa”, “(PBMC) (PB003F; AlICells®, Alameda, Calif.)” for “(CCL-2; ATCC®, Manassas, Va.)”, “Mo.) and lipopolysaccharide from Salmonella minnesota (LPS) (Invivogen, San Diego, Calif.)” for “Mo.)”
as §2, with “(−IFN-γ/−LPS) PBMCs” for “(−IFN-γ) HeLa cells”, “(+IFN-γ/+LPS) PBMCs” for “(+IFN-γ) HeLa cells”
Frozen stocks of PBMCs were washed and recovered in RPMI 1640 medium (Thermo Fisher Scientific, Inc., Waltham, Mass.) supplemented with 10% v/v heat-inactivated fetal bovine serum (FBS) (Thermo Fisher Scientific, Inc., Waltham, Mass.), and 1× penicillin-streptomycin antibiotic solution (Thermo Fisher Scientific, Inc., Waltham, Mass.). The cells were diluted to 1,000,000 cells/mL in the supplemented RPMI 1640 medium. 50 μL of either the cell suspension, for the mass spectrometry assay, or medium alone, for the cytotoxicity assay, were added to the low control wells, on the previously prepared 384-well compound plates, resulting in 50,000 cells/well or 0 cells/well respectively. IFN-γ and LPS were added to the remaining cell suspension at final concentrations of 100 ng/ml and 50 ng/ml respectively, and 50 μL of the stimulated cells were added to all remaining wells on the 384-well compound plates. The plates, with lids, were then placed in a 37° C., 5% CO2 humidified incubator for 2 days.
as §3, with “and 40” for “and 10”

Each structure is given as a SMILES string. Structures can show the parent of a compound that is named as a salt.

By EC50 is commonly meant the midpoint of the concentration-response curve. Low values mean an effect from little substance, high ones a need for much substance.

For the compound `CC(C)CN(c1ccc([C@H]2C[C@H]2C(=O)O)cc1Nc1nc2ccccc2o1)C1CCCCC1` (relative stereo) [Example 1, cis-2-(3-(Benzo[d]oxazol-2-ylamino)-4-(cyclohexyl(isobutyl)amino)phenyl)cyclopropanecarboxylic acid], the response in assay [1] was half-maximal at 100 nM (EC50). This lies in the sub-micromolar range. On the same count and under the same terms, under `CC(C)CN(c1ccc([C@H]2C[C@H]2C(=O)O)cc1Nc1nc2ccccc2s1)C1CCCCC1` (relative stereo) [Example 3, cis-2-(3-(Benzo[d]thiazol-2-ylamino)-4-(cyclohexyl(isobutyl)amino)phenyl)cyclopropanecarboxylic acid] stands 15.8 nM. Turning to `CC(C)CN(c1ccc([C@H]2C[C@H]2C(=O)O)cc1Nc1nc(Cl)ns1)C1CCCCC1` (relative stereo) [Example 4, cis-2-(3-((3-Chloro-1,2,4-thiadiazol-5-yl)amino)-4-(cyclohexyl(isobutyl)amino)phenyl)cyclopropanecarboxylic acid], the figures for the EC50 in assay [2] and in assay [1] were 1.26 nM and 10 nM, respectively.

For the compound `CC(C)CN(c1ccc([C@H]2C[C@H]2C(=O)O)cc1Nc1nc(-c2ccccc2)co1)C1CCCCC1` (relative stereo) [Example 5, cis-2-(4-(Cyclohexyl(isobutyl)amino)-3-((4-phenyloxazol-2-yl)amino)phenyl)cyclopropanecarboxylic acid], a half-maximal effect in assay [1] (EC50) was put at 398 nM. Regarding `CC(C)CN(c1ccc([C@H]2C[C@H]2C(=O)O)cc1Nc1nc(C(F)(F)F)ns1)C1CCCCC1` (relative stereo) [Example 6, cis-2-(4-(Cyclohexyl(isobutyl)amino)-3-((3-(trifluoromethyl)-1,2,4-thiadiazol-5-yl)amino)phenyl)cyclopropanecarboxylic acid, 2,2,2-trifluoroacetic acid], the values for the EC50 in assay [2] and in assay [1] were 1.26 nM and 10 nM, respectively.

`CC(C)CN(c1ccc(C2CC2C(=O)O)cc1Nc1nc2ccccc2[nH]1)C1CCCCC1` (stereo not drawn) [Example 2, cis-2-(3-((1H-Benzo[d]imidazol-2-yl)amino)-4-(cyclohexyl(isobutyl)amino)phenyl)cyclopropanecarboxylic acid] gave a concentration giving a half-maximal response (EC50) in assay [1] of 5.01 nM.

In the case of `CC(C)CN(c1ccc(-c2ccccc2C(=O)O)cc1Nc1nc2ccccc2o1)C1CCCCC1` [Example 7, 3′-(Benzo[d]oxazol-2-ylamino)-4′-(cyclohexyl(isobutyl)amino)-[1,1′-biphenyl]-2-carboxylic acid], the EC50 in assay [2] was 39.8 nM; in assay [1] it was 79.4 nM. For the compound `CC(C)CN(c1ccc(-c2ccccc2C(=O)O)cc1Nc1nc2ccccc2[nH]1)C1CCCCC1` [Example 8, 3′-((1H-Benzo[d]imidazol-2-yl)amino)-4′-(cyclohexyl(isobutyl)amino)-[1,1′-biphenyl]-2-carboxylic acid], the midpoint of the response in assay [1], the EC50, lay at 7.94 nM. Turning to `CC(C)CN(c1ccc(-c2ccccc2C(=O)O)cc1Nc1nc(Cl)ns1)C1CCCCC1` [Example 9, 3′-((3-Chloro-1,2,4-thiadiazol-5-yl)amino)-4′-(cyclohexyl(isobutyl)amino)-[1,1′-biphenyl]-2-carboxylic acid], the EC50 was 2.51 nM in assay [2] and 10 nM in assay [1]. For `CC(C)CN(c1ccc(-c2ccccc2-c2nnn[nH]2)cc1Nc1nc(Cl)ns1)C1CCCCC1` [Example 10, N^3-(3-Chloro-1,2,4-thiadiazol-5-yl)-N^4-cyclohexyl-N^4-isobutyl-2′-(1H-tetrazol-5-yl)-[1,1′-biphenyl]-3,4-diamine], the EC50 in assay [1] was 12.6 nM. Take `CC(C)CN(c1ccc(-c2ccccc2-c2nnn[nH]2)cc1Nc1nc2ccccc2o1)C1CCCCC1` [Example 11, N^3-(Benzo[d]oxazol-2-yl)-N^4-cyclohexyl-N^4-isobutyl-2′-(1H-tetrazol-5-yl)-[1,1′-biphenyl]-3,4-diamine]: the figures for the EC50 in assay [2] and in assay [1] were 15.8 nM and 25.1 nM, respectively.

Regarding `Cc1cc(Nc2cc(-c3ccccc3-c3nn[nH]n3)ccc2N(CC(C)C)CC(C)C)no1` [Example 12, N^4,N^4-diisobutyl-N^3-(5-methylisoxazol-3-yl)-2′-(2H-tetrazol-5-yl)-[1,1′-biphenyl]-3,4-diamine], the figures for the EC50 in assay [2] and in assay [1] were 39.8 nM and 158 nM, respectively. The corresponding values for `C/C=C/Cc1cc(-c2ccccc2-c2nnn[nH]2)cc(Nc2nc3ccccc3o2)c1OCCC` [Example 13, (E)-N-(5-(But-2-en-1-yl)-4-propoxy-2′-(1H-tetrazol-5-yl)-[1,1′-biphenyl]-3-yl)benzo[d]oxazol-2-amine, Trifluoroacetic acid Salt] are 7.94 nM and 3.98 nM.

`C/C=C/Cc1cc(-c2ccccc2-c2nnn[nH]2)cc(Nc2nc(Cl)ns2)c1OCCC` [Example 15, (E)-N-(5-(But-2-en-1-yl)-4-propoxy-2′-(1H-tetrazol-5-yl)-[1,1′-biphenyl]-3-yl)-3-chloro-1,2,4-thiadiazol-5-amine, Trifluoroacetic acid Salt] showed an EC50 in assay [1] of 126 nM.
